Results on 24 compounds are retold here after paper PMC6264139, “Schiff Bases of Indoline-2,3-dione: Potential Novel Inhibitors of Mycobacterium Tuberculosis (Mtb) DNA Gyrase ^†” (Molecules, 2011).

Where “and” joins values, the source holds several entries; their conditions need not be identical. Identical values can stand only once.

Sequence of Mtb DNA gyrase (P9WG45 whole entry): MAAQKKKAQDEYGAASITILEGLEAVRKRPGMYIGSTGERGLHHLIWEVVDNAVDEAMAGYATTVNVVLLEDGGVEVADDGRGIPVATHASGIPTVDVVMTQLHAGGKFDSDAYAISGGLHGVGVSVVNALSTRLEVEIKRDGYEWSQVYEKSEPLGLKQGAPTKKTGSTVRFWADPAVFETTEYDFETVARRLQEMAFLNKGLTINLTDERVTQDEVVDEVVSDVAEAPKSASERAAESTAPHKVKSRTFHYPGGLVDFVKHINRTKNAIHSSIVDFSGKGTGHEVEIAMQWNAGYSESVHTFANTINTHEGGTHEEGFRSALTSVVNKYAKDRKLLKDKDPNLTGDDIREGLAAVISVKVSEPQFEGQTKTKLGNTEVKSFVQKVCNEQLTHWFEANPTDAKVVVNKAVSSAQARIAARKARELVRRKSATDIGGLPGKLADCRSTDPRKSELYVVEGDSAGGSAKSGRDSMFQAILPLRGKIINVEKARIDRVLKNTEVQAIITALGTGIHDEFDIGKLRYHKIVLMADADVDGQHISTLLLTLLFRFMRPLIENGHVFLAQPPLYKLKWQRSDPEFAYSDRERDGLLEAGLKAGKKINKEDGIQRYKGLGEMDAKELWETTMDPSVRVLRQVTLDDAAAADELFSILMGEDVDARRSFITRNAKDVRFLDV
Sequence of Mtb DNA gyrase (P9WG47 whole entry): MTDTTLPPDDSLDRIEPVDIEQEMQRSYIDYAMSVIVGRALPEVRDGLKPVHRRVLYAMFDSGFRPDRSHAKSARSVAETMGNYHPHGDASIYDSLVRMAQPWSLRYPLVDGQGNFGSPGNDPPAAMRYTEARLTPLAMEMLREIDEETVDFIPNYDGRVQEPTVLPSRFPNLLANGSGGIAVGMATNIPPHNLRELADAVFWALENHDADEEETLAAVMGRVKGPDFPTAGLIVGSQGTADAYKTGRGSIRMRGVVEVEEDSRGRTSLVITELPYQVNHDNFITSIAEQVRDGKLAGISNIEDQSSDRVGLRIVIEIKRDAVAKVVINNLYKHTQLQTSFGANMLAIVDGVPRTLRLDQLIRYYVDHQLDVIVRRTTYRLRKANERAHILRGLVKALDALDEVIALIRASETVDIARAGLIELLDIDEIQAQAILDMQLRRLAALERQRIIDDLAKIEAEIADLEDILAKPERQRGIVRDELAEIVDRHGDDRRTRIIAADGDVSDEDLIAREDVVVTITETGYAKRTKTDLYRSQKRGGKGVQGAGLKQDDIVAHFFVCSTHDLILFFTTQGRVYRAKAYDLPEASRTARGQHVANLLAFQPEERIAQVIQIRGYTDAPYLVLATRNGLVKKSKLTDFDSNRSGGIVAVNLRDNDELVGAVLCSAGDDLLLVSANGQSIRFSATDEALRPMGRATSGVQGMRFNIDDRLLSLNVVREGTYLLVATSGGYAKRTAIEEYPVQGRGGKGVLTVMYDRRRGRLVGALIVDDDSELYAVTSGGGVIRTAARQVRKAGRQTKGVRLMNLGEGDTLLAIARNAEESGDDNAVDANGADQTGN

In one assay the target is Mtb DNA gyrase (Mycobacterium tuberculosis, UniProt P9WG45+P9WG47). The experiment in a line: Mtb DNA gyrase supercoiling inhibition assay. The format is biochemical, Mycobacterium tuberculosis strain H37RV. Conditions: Mtb wt gyrase IC50, supercoiling of relaxed pBR322 DNA, 60 minutes at 37 °C, inhibitor 1.56 to 200 µM. How it is done:
Two-fold increases in inhibitor concentrations ranging from 1.56 to 200 µM were added to pBR322 relaxed DNA in the presence of Mtb DNA gyrase enzyme. Control lanes are: Lane 1, DNA with no enzyme or inhibitor and Lane 2, DNA with enzyme but no inhibitor. IC50 values were calculated by measurement of fluorescence intensity after ethidium bromide staining of the supercoiling band at the bottom of the lanes. […] (b) IC50 curves of supercoiling (SC) fluorescence data. DNA fluorescence was quantitated with an Alpha Imager 2200 Analysis System (Cell Biosciences, Santa Clara, CA, USA) and IC50 values were determined by nonlinear regression analysis with Graphpad Prism software (Graphpad Software, Inc., San Diego, CA, USA). IDV = Integrated Density Value.
The isatin Schiff bases synthesized and characterized in this report were tested for their ability to inhibit supercoiling activity of DNA gyrase. DNA gyrase is the only enzyme known so far having the ability to introduce negative supercoils in DNA. In all the species of mycobacteria, including Mtb, DNA gyrase is the sole type II topoisomerase carrying out the reactions of both gyrase and topoisomerase IV. Since the DNA gyrase from Mtb and M. smegmatis are highly similar at a functional as well as a protein sequence level and antigenic properties, Mtb strain H37RV DNA gyrase has been used for carrying out the supercoiling assays.
Relaxed pBR322 DNA (0.1 µg) was incubated with 1 unit of Mtb DNA gyrase for 60 minutes at 37 °C in the following buffer: 2 mM ATP, 4 mM DTT, 25 mM KCl, 6 mM magnesium acetate, 50 µg/mL of molecular grade BSA, 0.1 mg/mL E. coli tRNA, 2mM spermidine, 100 mM potassium glutamate and 40 mM Tris-HCL pH 7.5 (20 µL). Reactions are stopped with 0.5% SDS, 6 mM EDTA, 5.35% glycerol, and 0.013% bromophenol blue (10 µL). Reactions are then loaded onto a 1% agarose/ TBE gel to separate supercoiled and relaxed DNA forms and run overnight at 22 volts. Bands are visualized by staining with 0.5 µg/mL EtBr in 1 × TBE for 40 minutes then washing with dH2O for 120 minutes. Quantification is done on the AlphaImager 2200 system. DNA gyrase subunits, GyrA and GyrB, were isolated from Mtb strain H37RV genomic DNA, expressed and purified in pET overexpression constructs in E coli. One unit of DNA supercoiling activity is defined as the amount that converts ~50% relaxed DNA, in the standard assay, to supercoiled DNA in 60 minutes at 37 °C.
Broadly, the IC50 is the point on the concentration scale where inhibition reaches its midpoint. On to `O=C1Nc2ccccc2/C1=N/NC(=O)c1ccncc1` [Compound 3, (Z)-N'-(2-Oxoindolin-3-ylidene)isonicotinohydrazide], for which the IC50 was above 200 µM.
On to `O=C1Nc2ccc(Cl)cc2/C1=N/NC(=O)c1ccncc1` [Compound 4, (Z)-N'-(5-Chloro-2-oxoindolin-3-ylidene)isonicotinohydrazide], for which the IC50 was above 200 µM.
Still for that read-out and setting: the value for `O=C1Nc2ccc(F)cc2/C1=N/NC(=O)c1ccncc1` [Compound 5, (Z)-N'-(5-Fluoro-2-oxoindolin-3-ylidene)isonicotinohydrazide] was above 200 µM; that for `Cc1ccc2c(c1)/C(=N/NC(=O)c1ccncc1)C(=O)N2` [Compound 6, (Z)-N'-(5-Methyl-2-oxoindolin-3-ylidene)isonicotinohydrazide] was above 200 µM.
The same measure, in the same setting: the value for `O=C1Nc2ccc(OC(F)(F)F)cc2/C1=N/NC(=O)c1ccncc1` [Compound 7, (Z)-N'-(2-Oxo-5-(trifluoromethoxy)indolin-3-ylidene)isonicotinohydrazide] was above 200 µM.
The same measure, in the same setting: the value for `O=C1Nc2ccc([N+](=O)[O-])cc2/C1=N/NC(=O)c1ccncc1` [Compound 8, (Z)-N'-(5-Nitro-2-oxoindolin-3-ylidene)isonicotinohydrazide] was 157 µM; that for `O=C(N/N=C1\C(=O)N(c2ccccc2)c2ccccc21)c1ccncc1` [Compound 9, (Z)-N'-(2-Oxo-1-phenylindolin-3-ylidene)isonicotinohydrazide] was above 200 µM.
Regarding `O=C(N/N=C1\C(=O)N(Cc2ccccc2)c2ccccc21)c1ccncc1` [Compound 10, (Z)-N'-(1-Benzyl-2-oxoindolin-3-ylidene)isonicotinohydrazide], the IC50 is above 200 µM.
The compound `O=C(N/N=C1\C(=O)N(Cc2ccccc2)c2ccc(Cl)cc21)c1ccncc1` [Compound 11, (Z)-N'-(1-Benzyl-5-chloro-2-oxoindolin-3-ylidene)isonicotinohydrazide] returned an IC50 above 200 µM.
On the same count and under the same terms, the figure for `O=C(N/N=C1\C(=O)N(Cc2ccccc2)c2ccc(F)cc21)c1ccncc1` [Compound 12, (Z)-N'-(1-Benzyl-5-fluoro-2-oxoindolin-3-ylidene)isonicotinohydrazide] is above 200 µM.
Still for that read-out and setting: the figure for `Cc1ccc2c(c1)/C(=N/NC(=O)c1ccncc1)C(=O)N2Cc1ccccc1` [Compound 13, (Z)-N'-(1-Benzyl-5-methyl-2-oxoindolin-3-ylidene)isonicotinohydrazide] is above 200 µM.
Still for that read-out and setting: the value for `O=C1Nc2ccccc2/C1=N/NC(=O)c1cccnc1` [Compound 14, (Z)-N'-(2-Oxoindolin-3-ylidene)nicotinohydrazide] was above 200 µM.
In turn, `O=C1Nc2ccc(F)cc2/C1=N/NC(=O)c1ccco1` [Compound 15, (Z)-N'-(5-Fluoro-2-oxoindolin-3-ylidene)furan-2-carbhydrazide] showed an IC50 above 200 µM.
Same read-out and setting: the value for `O=C1Nc2ccccc2/C1=N/NC(=O)c1ccc([N+](=O)[O-])o1` [Compound 16, (Z)-5-Nitro-N'-(2-Oxoindolin-3-ylidene)furan-2-carbohydrazide] was above 200 µM; that for `O=C1Nc2ccc(Cl)cc2/C1=N/NC(=O)c1cc2ccccc2o1` [Compound 17, (Z)-N'-(5-Chloro-2-oxoindolin-3-ylidene)benzofuran-2-carbohydrazide] was > 200 µM and 294 µM.
For the compound `Cc1ccc2c(c1)/C(=N/NC(=O)c1cc3ccccc3o1)C(=O)N2` [Compound 18, (Z)-N'-(5-Methyl-2-oxoindolin-3-ylidene)benzofuran-2-carbohydrazide], the IC50 is ~50 µM and 56.3 µM.
On the same count and under the same terms, the figure for `O=C1Nc2ccc([N+](=O)[O-])cc2/C1=N/NC(=O)c1cc2ccccc2o1` [Compound 19, (Z)-N'-(5-Nitro-2-oxoindolin-3-ylidene)benzofuran-2-carbohydrazide] is 89.9 µM; for `O=C(N/N=C1\C(=O)N(c2ccccc2)c2ccccc21)c1cc2ccccc2o1` [Compound 20, (Z)-N'-(2-Oxo-1-phenylindolin-3-ylidene)benzofuran-2-carbohydrazide] it is above 200 µM; for `O=C1Nc2ccc(F)cc2/C1=N/NC(=O)c1cc2cc([N+](=O)[O-])ccc2o1` [Compound 21, (Z)-N'-(5-Fluoro-2-oxoindolin-3-ylidene)-5-nitrobenzofuran-2-carbhydrazide] it is above 200 µM.
The same measure, in the same setting: the figure for `Cc1cccc(Nc2ccccc2C(=O)N/N=C2\C(=O)N(Cc3ccccc3)c3ccccc32)c1C` [Compound 23, (Z)-N'-(1-Benzyl-2-oxoindolin-3-ylidene)-2-(2,3-dimethylphenylamino)benzohydrazide] is above 200 µM; for `Cc1ccc2c(c1)/C(=N/NC(=O)c1ccccc1Nc1c(Cl)ccc(C)c1Cl)C(=O)N2` [Compound 24, (Z)-2-(2,6-Dichloro-3-methylphenylamino)-N'-(5-methyl-2-oxoindolin-3-ylidene)-benzohydrazide] it is above 200 µM.
Turning to `O=C1Nc2ccc(OC(F)(F)F)cc2/C1=N/NC(=O)c1ccccc1Nc1cccc(C(F)(F)F)c1` [Compound 25, (Z)-N'-(2-Oxo-5-(trifluoromethoxy)indolin-3-ylidene)-2-(3-(trifluoromethyl)phenylamino)-benzo-hydrazide], the IC50 was above 200 µM.
Still for that read-out and setting: the figure for `CCn1cc(C(=O)N/N=C2\C(=O)Nc3ccc(F)cc32)c(=O)c2ccc(C)nc21` [Compound 26, (Z)-1-Ethyl-N'-(5-fluoro-2-oxoindolin-3-ylidene)-7-methyl-4-oxo-1,4-dihydro-1,8-naphthyridine-3-carbohydrazide] is above 200 µM.

The assay is the same for the next values; noted with them: supercoiling of relaxed pBR322 DNA, 60 minutes at 37 °C, inhibitor 1.56 to 200 µM; read-out: Mtb wt gyrase IC50.
As to `O=C1/C(=N\NC(=O)C23CC4CC(CC(C4)C2)C3)c2ccccc2N1c1ccccc1` [Compound 22, (Z)-N'-(2-oxo-1-phenylindolin-3-ylidene)adamantane-1-carbohydrazide], the IC50 was above 200 µM.
